Row | Compound | solubility (mole fraction) (in isobutanol, 283.15 K) | solubility (mole fraction) (in isobutanol, 293.15 K) | solubility (mole fraction) (in isobutanol, 303.15 K) | solubility (mole fraction) (in isobutanol, 313.15 K) | solubility (mole fraction) (in isobutanol, 323.15 K) | solubility (mole fraction) (in isobutanol, 333.15 K) | solubility (mole fraction) (in isopropanol, 283.15 K) | solubility (mole fraction) (in isopropanol, 293.15 K) | solubility (mole fraction) (in isopropanol, 303.15 K) | solubility (mole fraction) (in isopropanol, 313.15 K) | solubility (mole fraction) (in isopropanol, 323.15 K) | solubility (mole fraction) (in isopropanol, 333.15 K) | solubility (mole fraction) (in n-butanol, 283.15 K) | solubility (mole fraction) (in n-butanol, 293.15 K) | solubility (mole fraction) (in n-butanol, 303.15 K) | solubility (mole fraction) (in n-butanol, 313.15 K) | solubility (mole fraction) (in n-butanol, 323.15 K) | solubility (mole fraction) (in n-butanol, 333.15 K) | solubility (mole fraction) (in n-pentanol, 283.15 K) | solubility (mole fraction) (in n-pentanol, 293.15 K) | also measured
1 | CNC(=O)c1cc(Oc2ccc(NC(=O)Nc3ccc(Cl)c(C(F)(F)F)c3)cc2)ccn1.Cc1ccc(S(=O)(=O)O)cc1 | 6.18e-05 | 9.67e-05 | 0.000149 | 0.000216 | 0.000284 | 0.000423 | 7.81e-05 | 0.000109 | 0.00016 | 0.000229 | 0.000311 | 0.000442 | 0.000132 | 0.000163 | 0.000238 | 0.000316 | 0.000419 | 0.000541 | 5.78e-05 | 8.76e-05 | solubility (mole fraction) (in n-pentanol, 303.15 K): 0.000148; solubility (mole fraction) (in n-pentanol, 313.15 K): 0.000209; solubility (mole fraction) (in n-pentanol, 323.15 K): 0.000272; solubility (mole fraction) (in n-pentanol, 333.15 K): 0.000394; solubility (mole fraction) (in n-propanol, 283.15 K): 0.000139; solubility (mole fraction) (in n-propanol, 293.15 K): 0.000175; solubility (mole fraction) (in n-propanol, 303.15 K): 0.000258; solubility (mole fraction) (in n-propanol, 313.15 K): 0.000344; solubility (mole fraction) (in n-propanol, 323.15 K): 0.000456; solubility (mole fraction) (in n-propanol, 333.15 K): 0.000622
2 | CNC(=O)c1cc(Oc2ccc(NC(=O)Nc3ccc(Cl)c(C(F)(F)F)c3)cc2)ccn1 | 0.000253 | 0.000379 | 0.000715 | 0.00104 | 0.00155 | 0.00216 | 0.000509 | 0.000638 | 0.00104 | 0.00152 | 0.00226 | 0.00325 | 0.000645 | 0.000816 | 0.0013 | 0.00193 | 0.00288 | 0.00417 | 0.000599 | 0.000819 | solubility (mole fraction) (in n-pentanol, 303.15 K): 0.00122; solubility (mole fraction) (in n-pentanol, 313.15 K): 0.00173; solubility (mole fraction) (in n-pentanol, 323.15 K): 0.00256; solubility (mole fraction) (in n-pentanol, 333.15 K): 0.00377; solubility (mole fraction) (in n-propanol, 283.15 K): 0.000678; solubility (mole fraction) (in n-propanol, 293.15 K): 0.000888; solubility (mole fraction) (in n-propanol, 303.15 K): 0.00137; solubility (mole fraction) (in n-propanol, 313.15 K): 0.00204; solubility (mole fraction) (in n-propanol, 323.15 K): 0.00313; solubility (mole fraction) (in n-propanol, 333.15 K): 0.00456
